# Tests used:
# human T-ALL line Jurkat = test: MTT cell viability, Jurkat; format: cell-based; details: 48 hours
# Experimental: (§1) FIG. 3 is a graph showing viability of human T-ALL lines incubated with individual compounds. Specifically, two human ALL lines (B-ALL: RS4; 11 and T-ALL: Jurkat) were incubated on day 0 with serum or with 2.5 μM of the indicated compounds (except for aphidicolin 1 μM and cyclosporine 1.5 μM). 48 hours later, cells were tested for viability by MTT test. Results from the mean of 3 to 4 experiments carried out in triplicate (individual dots) and the mean of all experiments (horizontal bar) are indicated. Results are shown for compounds without a cell cycle effect (B). Viability of untreated cells was arbitrarily set at 1.0.
# (§2) Cell culture experiments: Cells were incubated at 37° C. in 75 mL flasks in RPMI containing 10% FBS, 5 mL Penicillin/Streptomycin (100×) in a total volume of […]. Cells were counted using a hemocytometer, and 25,000 cells were plated in each well of a 96-well plate. Compounds and controls were added and cells were harvested after a 48 hr incubation period.
# (§3) To assess effects of compounds, cell viability was measured. […] After crystal solubilization with DMSO a blue color (that is proportional to the amount of crystal formed) can be measured. […] Final optical density (OD) obtained from formazan formation was calculated OD=L1-L2 (background). […]
# [1] = Complete blood count (CBC) evaluation in mice; format: in vivo, male Swiss Albino mouse; details: mouse, 48 h after dosing
# Experimental: The pharmacokinetics of 1H-indole-3-carbaldehyde quinolin-8-ylhydrazone (Compound C3) was evaluated following intravenous (3 mg/kg) and oral (15 mg/kg) solution administration of 1H-indole-3-carbaldehyde quinolin-8-ylhydrazone in male Swiss Albino mouse. The effect of the Test Item, 1H-indole-3-carbaldehyde quinolin-8-ylhydrazone on complete blood count (CBC) was also evaluated. Pharmacokinetic phase consisted of two groups, Group 1 and Group 2. Animals in Group 1 were given intravenous bolus dose in a vehicle containing 5% N,N-dimethylacetamide, 5% CREMOPHOR™ EL and 90% Dextrose solution (5% w/v) and those in Group 2 were given oral solution dose in a vehicle, the composition of which was same as that of intravenous formulation. In addition, the effect of Test Item on complete blood count was evaluated following intravenous and oral dose administration along with its vehicle controls. A total of four groups were used each with 6 mice.
# From the pharmacokinetic group, predose samples were collected from 3 animals in each group. Following dose administration terminal blood samples were collected at each of the following time points (in triplicate): 0.083 (only for intravenous), 0.25, 0.5, 1, 2, 4, 8, 12 and 24 hours. At each time point, approximately 500 μL of whole blood was withdrawn from the retro orbital sinus and collected in labeled tubes containing dipotassium EDTA as anticoagulant (20 μL of 200 mM K2 EDTA solution per mL of blood). Plasma was separated by centrifuging the whole blood at about 2500 g for 10 minutes at 4° C. within 1 h of sample collection. Separated plasma was stored below minus 50° C. until bioanalysis. A sensitive LC-MS/MS method was used for the quantitation of 1H-indole-3-carbaldehyde quinolin-8-ylhydrazone. The lower limit of quantitation was 1.04 ng/mL. For CBC evaluation, approximately 500 μL of blood was collected in labeled tubes containing dipotassium EDTA as anticoagulant (10 […]/mL of blood) after 48 h of dose administration from all animals.
# A total of 24 mice were divided in to four groups as follows: […]
# [2] = tested on: human B-ALL line RS 4; 11; test: MTT cell viability, RS4;11; format: cell-based; details: RS4;11, 2.5 μM, 48 hours
# Experimental: as §1, §2, §3
# [3] = 14-day twice daily gavage in healthy CD-1 male mice; format: in vivo; details: gavage 50, 15 and 5 mg/kg twice per day, 14 days
# Experimental: Healthy CD-1 male mice were also gavage-fed with compound 3 at concentrations of 50 mg/kg, 15 mg/kg and 5 mg/kg twice per day. […] Hematological, biochemical, immunological and pathological specimen are currently being evaluated.
# [4] = tested on: HEK293 human kidney cell line; test: Cell viability, kidney cell line; format: cell-based
# Experimental: Experiments described in this document are carried out in zebrafish embryos (cell cycle experiments) and lck-GFP transgenic larvae (5 to 8 days after fertilization), and in human cell lines (Jurkat is a human T cell leukemia, RS4; 11 is a human B cell leukemia and HEK293 is a human kidney cell line).
# as §2
# To assess effects of compounds, cell viability was measured. For this, cells were incubated with MTT [3-(4,5-[…])-2,5 diphenyl Tetrazolium Bromid], a compound that is transformed into a formazan crystal by mitochondrial dehydrogenases. After crystal solubilization with DMSO a blue color (that is proportional to the amount of crystal formed) can be measured. Formazan solution absorbs light at 550-570 nm but not at 620-650 nm. 620-650 nm absorbency results from cell debris and well imperfections. Final optical density (OD) obtained from formazan formation was calculated OD=L1-L2 (background).
# Next, the nine compounds were tested for activity against the human T-ALL line: Jurkat and the human B-ALL line RS 4; 11. […]
smiles,measurement,setting,value
"C(=NNc1cccc2cccnc12)c1c[nH]c2ccccc12 [Compound C3, 1H-indole-3-carbaldehyde quinolin-8-ylhydrazone]","Response of T cell leukemia line (viability, MTT)","human T-ALL line Jurkat; 2.5 μM, FIG. 3",responded similarly
same,Effective concentration killing Jurkat in vitro,human T-ALL line Jurkat; MTT,2.5 µM
same,Other hematological parameters vs vehicle control,[1]; intravenous 3 mg/kg and oral 15 mg/kg,no effect
same,White blood cell count vs vehicle control,[1]; intravenous 3 mg/kg,lower
same,Platelet count vs vehicle control,[1]; oral 15 mg/kg,lower
same,"Effect on B-ALL line (viability, MTT)",[2],"neither the kidney cell line, nor the B-ALL were affected"
same,Adverse effects,[3],No adverse effects were observed
same,Effect on kidney cell line (viability),[4],"neither the kidney cell line, nor the B-ALL were affected"
